This note sets out measurements from publication PMC6327989 (Journal of Enzyme Inhibition and Medicinal Chemistry, 2019).

Sequence of recombinant Sphingomyelinase D (SMase D) from L. laeta venom (Q8I914 27-311 limits assumed): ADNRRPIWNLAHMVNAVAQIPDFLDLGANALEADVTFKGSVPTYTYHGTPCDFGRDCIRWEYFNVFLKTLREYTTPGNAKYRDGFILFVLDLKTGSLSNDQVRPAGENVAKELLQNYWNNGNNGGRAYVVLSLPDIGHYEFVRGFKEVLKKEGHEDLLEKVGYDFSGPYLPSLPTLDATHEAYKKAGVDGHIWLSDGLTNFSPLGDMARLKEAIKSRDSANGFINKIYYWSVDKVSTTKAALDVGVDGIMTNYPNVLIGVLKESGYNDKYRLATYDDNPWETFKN

This assay concerns the target recombinant Sphingomyelinase D (SMase D) from L. laeta venom (Loxosceles laeta, UniProt Q8I914). Description: biochemical.
`Cc1[nH]c2ccccc2c1/C=N/NS(=O)(=O)c1ccc(Br)cc1` [compound 5, 4-bromo-N-[(E)-(2-methyl-1H-indol-3-yl)methyleneamino]benzenesulfonamide]: the inhibitory constant (Ki) – broadly, the equilibrium dissociation constant of an inhibitor or competing ligand from its target – is 490 ± 100 nM.

For `Cc1cc(OS(=O)(=O)c2ccc(Cl)cc2)cc2c1C(=O)/C(=C/c1cccnc1)O2` [compound 6, 4-methyl-3-oxo-2–(3-pyridylmethylene)benzo[3,4-b]furan-6-yl 4-chlorobenzenesulphonate], the inhibitory constant (Ki) amounted to 590 ± 230 nM.

In the case of `Cc1ccc(S(=O)(=O)Oc2cc(N)nc(SCc3ccc(C#N)cc3)n2)cc1` [compound 1, 6-amino-2-((4-cyanobenzyl)thio)pyrimidin-4-yl 4-methylbenzenesulphonate], the Ki was determined as 540 ± 130 nM.
